From paper PMC9170106, “Pre-clinical evaluation of LASSBio-1491: From in vitro pharmacokinetic study to in vivo leishmanicidal activity” (PLoS ONE, 2022)

Tests used:
PAMPA-GIT permeability = conditions: for Classification / Fa experimental: GIT-PAMPA; for Fa experimental: absorbed fraction
Description: (§1) The parallel artificial membrane permeability assay uses 96-well plate in a “sandwich” type system, where one plate overlaps the other (PAMPA). […] The lipid mixture that impregnates the PVDF filter has a different constitution for the permeability tests for the blood-brain barrier (Brain lipid from pig extract in dodecane) and gastro-intestinal tract (L-α soy phosphatidylcholine in dodecane). In the PAMPA BBB and TGI assays, the optical density values obtained in the reading at each selected wavelength, for each of the compounds were analyzed in comparison with the values of several controls. In the case of the BBB, these values were used to elaborate an equation and determine the permeability coefficient (Pe), using a previously elaborated spreadsheet, and, for the TGI, these values were used to determine the absorbed fraction (Fa%), both using the Excel® program.

[1] = GIT-PAMPA, ref literature, cited from earlier work; for Fa literature: absorbed fraction
PAMPA-BBB permeability = conditions: for Classification: PAMPA-BBB
Description: as §1

L. major LV39 = experiment: In vivo activity against Leishmania major LV39 substrain; set-up: species or system BALB/c mice; conditions: LASSBio-1491 10 μmol/Kg/day, glucantime 30 μmol/Kg/day x 28 days, i.p.
Experimental: Thus, 6-week-old female BALB/c mice weighing approximately 20 g were used. […] Briefly, ketamine (80mg/kg) and xylazine (8 mg/kg) were simultaneously used to anesthetize the mice by intraperitoneal injection. The promastigotes of L. major LV39 substrain in the stationary phase, harvested after the third passage (obtained from parasites frozen), were inoculated subcutaneously at a concentration of 1x 10^5 parasites in the right ear of mice. […] The size of the lesions was measured using a pachymeter. Thiopental (150 mg/kg, i.p.) was used to euthanize the mice and the quantitative limiting-dilution assay was used to determine the parasite burden of infected ears and draining lymph nodes. The results obtained from experiments were expressed as the mean ± S.E.M. with the data analyzed (size of the lesions or parasite burden) by ANOVA and Dunnett hoc tests, considering a significance level of p < 0.05.

Row | Compound | Classification (PAMPA-GIT permeability) | Fa experimental (PAMPA-GIT permeability) | Fa literature [1] | Pe literature [1] | also measured
1 | Nc1nc2c(ncn2COCCO)c(=O)[nH]1 [Acyclovir] | Low (low permeability (0–29%)) | 1.70% | – | – | –
2 | CC(C)NCC(O)COc1ccc(CC(N)=O)cc1 (centres unmarked) [Atenolol] | – | 2.26% | 5.2% | – | –
3 | Cn1c(=O)c2c(ncn2C)n(C)c1=O [Caffeine, reference compound] | – | – | – | – | Papp (PAMPA-BBB permeability; PAMPA): 0.81 ×10⁻⁶ cm/s; Classification (PAMPA-BBB permeability): CNS -
4 | CO/N=C(\C(=O)N[C@@H]1C(=O)N2C(C(=O)O)=C(CSc3nc(=O)c(=O)[nH]n3C)CS[C@H]12)c1csc(N)n1 [Ceftriaxone] | Low (low permeability (0–29%)) | 1.37% | 1% | 0.1 10^−6 cm s^-1 | –
5 | O=C(O)Cc1ccccc1Nc1c(Cl)cccc1Cl [Diclofenac] | High (high intestinal permeability (70–100%)) | 99.28% | 100% | 12.5 10^−6 cm s^-1 | –
6 | CCn1cc(C(=O)O)c(=O)c2cc(F)c(N3CCNCC3)nc21 [Enoxacin, reference compound] | – | – | – | – | Classification (PAMPA-BBB permeability): CNS -
7 | CCn1cc(C(=O)O)c(=O)c2cc(F)c(N3CCNCC3)cc21 [Norfloxacin] | – | – | – | – | Papp (PAMPA-GIT permeability; PAMPA): 0.7 ×10⁻⁶ cm/s
8 | CNC(=C[N+](=O)[O-])NCCSCc1ccc(CN(C)C)o1 [Ranitidine] | Medium (medium permeability (30–69%)) | 38.29% | – | – | –
9 | O=C(O)c1cc(/N=N/c2ccc(S(=O)(=O)Nc3ccccn3)cc2)ccc1O [Sulfasalazine] | – | – | 42% | 0.3 10^−6 cm s^-1 | –
10 | meglumine antimoniate [glucantime, reference compound] | – | – | – | – | lesion size (L. major LV39): reduced lesion size only between days 7 and 17; parasite load in draining lymph node (L. major LV39): reduce the parasite load; parasite load in infected ear (L. major LV39): reduce the parasite load
